Test results published in US20160237158A1, “Methods and Compositions for Targeting Tumor Microenvironment and for preventing Metastasis” (INSTITUT NATIONAL DE LA SANTÉ ET DA LA RECHERCHE MÉDICALE …, priority 2013, published 2016).

Columns and labels:
STAT3 = STAT3 phosphorylation in fibroblasts (western blot); format: cell-based, human; conditions: hDF stimulated by TGFβ1
Text: (§1) For western blot analysis, antibodies against STAT3 (#9134), pY705-STAT3 (#9145), SMAD2 (#3122), pSer465/467-SMAD2 (#3108), pY1022/1023-JAK1 (#3331), MLC2 (#3672), pThr18/19-MLC2 (#3674) were purchased from Cell Signaling (Cell Signaling Technology, Beverly Mass.), α-tubulin from sigma (T4026, Sigma, Saint Louis, Mo.); JAK1 from Biolegend (#604402, Biolegend, San Diego, Calif.), GP-130 (#sc-655) and RhoA (#sc-418, Santa Cruz Biotechnology, Santa Cruz, Calif.), and alpha-smooth muscle actin (α-SMA) from Abcam (#Ab5694, Abcam, Cambridge, Mass.). For immunofluorescence staining, antibodies against α-SMA and fibronectin were purchased from Sigma (#A2547 and F3648 respectively, Sigma, Saint Louis, Mo.). Chemical inhibitors used: Pyridone 6 (#42009, Calbiochem, Los Angeles, Calif.) was used at […], SB431542 (#1614, Tocris bioscience, Ellisville, Mo.) at 10 μM, Y27632 (#1254, Tocris bioscience, Ellisville, Mo.) and Actinomycin D (#856258, Sigma, Saint Louis, USA) at 5 μg/ml.
For immunoblotting analysis, cells were lysed on ice in lysis buffer (25 mM Tris (pH 6.8), 2% Sodium dodecyl sulfate (SDS), 5% glycerol, 1% beta-mercaptoethanol, 0.01% bromophenol blue). Equal amounts of protein from each sample were loaded on sodium dodecyl sulfate-polyacrylamide gel electrophoresis, separated, and transferred onto nitrocellulose. The immunoblots were blocked by incubation in 5% bovine serum albumin, 10 mM Tris-HCl (ph7.5), 500 mM NaCl, 0.1% Tween 20 for 30 min at room temperature, probed with specific antibodies and then with secondary antibodies using common classical methods. Immunodetection was performed using chemiluminescent HRP subtrate (#WBKLS0500, Millipore, Billerica, Mass.).

SMAD2 = SMAD2 phosphorylation in fibroblasts (western blot); format: cell-based, human; conditions: hDF stimulated by TGFβ1
Text: as §1
For immunoblotting analysis, cells were lysed on ice in lysis buffer (25 mM Tris (pH 6.8), 2% Sodium dodecyl sulfate (SDS), 5% glycerol, 1% beta-mercaptoethanol, 0.01% bromophenol blue). Equal amounts of protein from each sample were loaded on sodium dodecyl sulfate-polyacrylamide gel electrophoresis, separated, and transferred onto nitrocellulose. […]

hDF [1] = assay: qRT-PCR of IL6 family cytokine genes in TGFβ1-stimulated hDF; format: cell-based, human; conditions: one hour after stimulation, relative to control (Veh)
Description: RNA was isolated from total cell lysates using RNeasy Mini kit (#217004, Qiagen, Turnberry Ln Valencia, Calif.) according to the manufacturer's instructions. Reverse Transcription was performed using 500 ng cytoplasmic RNA using Superscript II reverse transcriptase (#18064-014, Invitrogen, Carlsbad, Calif.). Real time PCR was performed using Fast SYBR Green Master Mix ([…]; Applied Biosystems, Foster City, Calif.) in duplicates according to the recommendations of the manufacturer on an ABI Prism 7900HT sequence detection system (Applied Biosystems, Foster City, Calif.). Relative expression of the respective gene was determined after normalization to GAPDH and calculated with the following formula: relative expression level=2ddCT

hDF [2] = assay: LIF ELISA of TGFβ1-stimulated hDF culture medium; format: cell-based, human; conditions: after TGFβ1 stimulation
Description: For the quantitative determination of LIF protein levels secreted to the media, we used the human LIF ELISA Kit (#ELH-LIF-001, Raybiotech Inc, Norcross, Ga.) following manufacturer's specifications.
(§2) Cancer Cells were grown to confluence, washed twice with PBS and then incubated in serum-free medium at 37° C. After 48 hours, conditioned medium was collected, centrifugated at 5000 g for 5 minutes to remove cell debris and the supernatant stored at −80° C. For immunobloting analysis, fibroblasts were stimulated with cancer cells conditioned media for 5 min, otherwise stated, and lysed as described in the immunbloting section. To analyse LIF secretion upon TGFβ-1 stimulation, fibroblasts were stimulated with 2 ng/ml TGF beta-1 for 1, 4, 24 or 48 h in serum-free medium and conditioned media was prepared as below for ELISA analysis.

fibroblasts [3] = assay: Fibroblast contractility (collagen lattices) and pro-invasive activity (organotypic invasion) induced by human tumour cell conditioned media; format: cell-based; set-up: key to Fibroblasts contractile & pro-invasive phenotype: +: induction; −: no induction
Description: (§3) In this assay, hDF or CAFs were cultured during one week in serum-free medium (with either vehicle or cytokines) or CM before embedding in matrix gel. 5×10^5 fibroblasts were embedded in a 1 ml mixture of collagen I and Matrigel18. After the gel was set at 37° C. for 1 h, 5×10^5 SCC12 were plated on top of the gel in complete media. The next day, the gel was lifted onto individual collagen coated nylon discs resting on metal bridges and fed from underneath with daily changes of complete media (with either vehicle or inhibitors), allowing the epithelial layer to grow at an air-liquid interface.
(§4) After 5 days, cultures were fixed (4% paraformaldehyde+0.25% glutaraldehyde in PBS) and processed for haematoxylin and eosin (H&E) staining by standard methods. Invasion assay was measuring the total area of SCC cells and the area of non-invading SCC cells using imageJ software (http://rsbweb.nih.gov/ij/). The value of invasion index shown is the average 1−(non-invading area/total area) of at least ten fields from three or more independent experiments. Error bars are the standard deviation.
(§5) 2.5×10^4 Fibroblasts were embedded in 100 μl of matrix gel (the Collagen-Matrigel mixture used for organotypic invasion assays) and plated into wells of a 96 well plate^57. After 1 h at 37° C., the matrices were overlaid with 100 μl serum-free medium (with either vehicle, cytokines or inhibitors) or CM. Every 2 days, medium was changed and at day 6 the gels were photographed and the respective diameters of the well and gel were measured using ImageJ. The percentage contraction was calculated using the formula 100*(well diameter−gel diameter)/well diameter.
(§6) Neutralizing antibody against LIF (AB-250-NA, R&D, Minneapolis, Minn.), IL-6 R (AB-227-NA, R&D) or TGF beta-1,2,3 (MAB1835, R&D) were used at 10 μg/ml otherwise stated. Neutralizing antibody were incubated one hour with conditioned media before being used for matrix remodelling assay and fibroblasts stimulation to neutralize the biological activity of selected cytokines.
as §2

fibroblasts [4] = assay: Fibroblast contractility and pro-invasive activity induced by murine breast carcinoma cell conditioned media; format: cell-based, mouse; set-up: key: +: induction; −: no induction; conditions: antibodies 10 μg·ml−1
Description: as §3, §4, §5, §6, §2

hDF and hCAF = assay: Matrix remodelling (collagen gel contraction) assay; format: cell-based, human; conditions: hLu-CAF and hBr-CAF cells, FIG. 6A
Description: as §5

hDF [5] = assay: Fibronectin expression in hDF; format: cell-based, human; conditions: TGFβ1 stimulation
Description: Cells were grown on glass coverslips, fixed in 3% paraformaldehyde for 20 min at room temperature, rinsed twice in PBS and in 50 mM NH4Cl for 10 min and permeabilized with 0.5% Triton X-100 for 5 min. Cells were next blocked in PBS containing 1% bovine serum albumin (BSA) for 30 min and incubated with anti-alpha smooth muscle actin (1/400), or anti-fibronectin (1/400) antibodies in blocking buffer overnight at 4° C. After two washes in PBS, cells were incubated in the presence of a secondary antibody conjugated to Alexa 488 (1/400) for 40 min, rinsed twice in PBS, stained with DAPI (2 ug/ml) for 5 min, rinsed in water and the coverslips mounted onto glass slides using mounting media.

[6] = A375M2 CM (h. melanoma), antibodies 10 μg·ml−1, αLIF (50)
[7] = A375P CM (h. melanoma), antibodies 10 μg·ml−1
[8] = A549 CM (h. lung carcinoma), antibodies 10 μg·ml−1
[9] = CAL27 CM (human OSCC), antibodies 10 μg·ml−1, αLIF (50)
[10] = CAL33 CM (human OSCC), antibodies 10 μg·ml−1
[11] = CAL33_LIF CM (h. engineered cell line), antibodies 10 μg·ml−1, αLIF (50)
[12] = CAL33_mock CM (h. engineered cell line), antibodies 10 μg·ml−1
[13] = CAL60 CM (human OSCC), antibodies 10 μg·ml−1
[14] = CAL166 CM (human OSCC), antibodies 10 μg·ml−1
[15] = Detroit562 CM (human OSCC), antibodies 10 μg·ml−1
[16] = LS174 CM (h. colon carcinoma), antibodies 10 μg·ml−1
[17] = MDA-MB-231 CM (breast carcinoma), antibodies 10 μg·ml−1
[18] = MDA-MB-468 CM (breast carcinoma), antibodies 10 μg·ml−1
[19] = Mel501 CM (h. melanoma), antibodies 10 μg·ml−1
[20] = Mel1205 CM (h. melanoma), antibodies 10 μg·ml−1
[21] = SCC12 CM (human OSCC), antibodies 10 μg·ml−1
[22] = SCC13 CM (human OSCC), antibodies 10 μg·ml−1
[23] = SCC25 CM (human OSCC), antibodies 10 μg·ml−1
[24] = Sbcl2 CM (h. melanoma), antibodies 10 μg·ml−1
[25] = WM35 CM (h. melanoma), antibodies 10 μg·ml−1
[26] = WM278 CM (h. melanoma), antibodies 10 μg·ml−1
[27] = WM793 CM (h. melanoma), antibodies 10 μg·ml−1

siRNA GP130-IL6ST: siRNA targeting GP130-IL6ST (SEQ ID NO: 5 and 6), purchased from Dharmacon (chain 1 CUAAUUACAUUGUCUGGAA; chain 2 CUAAGGAGCAAUAUACUAU; listed as RNA, chemistry not given here)
STAT3 phosphorylation induced by TGFβ1 (STAT3): hampered
SMAD2 activation by TGFβ1 (SMAD2): without affecting

TGFβ1: TGF beta-1 cytokine (#100-21, Peprotech), used at 2 ng·ml-1
increase of IL6 mRNA steady state levels (hDF [1]): 5 fold
increase of LIF mRNA steady state levels (hDF [1]): 100 fold
LIF in hDF cell culture medium, 24 h peak (hDF [2]): 200 pg/mL

NC(=O)c1ccc(-c2nc(-c3ccc4c(c3)OCO4)c(-c3ccccn3)[nH]2)cc1 [SB431542]
Fibroblasts contractile & pro-invasive phenotype (fibroblasts [3]; [6]): +
Fibroblasts contractile & pro-invasive phenotype (fibroblasts [3]; [7]): +
Fibroblasts contractile & pro-invasive phenotype (fibroblasts [3]; [8]): +
Fibroblasts contractile & pro-invasive phenotype (fibroblasts [3]; [9]): +
Fibroblasts contractile & pro-invasive phenotype (fibroblasts [3]; [10]): −
Fibroblasts contractile & pro-invasive phenotype (fibroblasts [3]; [11]): +
Fibroblasts contractile & pro-invasive phenotype (fibroblasts [3]; [12]): −
Fibroblasts contractile & pro-invasive phenotype (fibroblasts [3]; [13]): +
Fibroblasts contractile & pro-invasive phenotype (fibroblasts [3]; [14]): +
Fibroblasts contractile & pro-invasive phenotype (fibroblasts [3]; [15]): +
Fibroblasts contractile & pro-invasive phenotype (fibroblasts [3]; [16]): +
Fibroblasts contractile & pro-invasive phenotype (fibroblasts [3]; [17]): +
Fibroblasts contractile & pro-invasive phenotype (fibroblasts [3]; [18]): +
Fibroblasts contractile & pro-invasive phenotype (fibroblasts [3]; [19]): −
Fibroblasts contractile & pro-invasive phenotype (fibroblasts [3]; [20]): +
Fibroblasts contractile & pro-invasive phenotype (fibroblasts [3]; [21]): +
Fibroblasts contractile & pro-invasive phenotype (fibroblasts [3]; [22]): +
Fibroblasts contractile & pro-invasive phenotype (fibroblasts [3]; [23]): +
Fibroblasts contractile & pro-invasive phenotype (fibroblasts [3]; [24]): −
Fibroblasts contractile & pro-invasive phenotype (fibroblasts [3]; [25]): +
Fibroblasts contractile & pro-invasive phenotype (fibroblasts [3]; [26]): +
Fibroblasts contractile & pro-invasive phenotype (fibroblasts [3]; [27]): +
Fibroblasts contractile & pro-invasive phenotype (fibroblasts [3]; hPK CM, antibodies 10 μg·ml−1): −

C[C@@H](N)[C@H]1CC[C@H](C(=O)Nc2ccncc2)CC1 [Y27632]
pro-invasive fibroblast conversion induced by CAL33-LIF CM (fibroblasts [3]; CAL33-LIF CM): blocked
action of SCC12 and SCC13 CM (pro-invasive fibroblast activation) (fibroblasts [3]; SCC12 and SCC13 CM): completely abrogated

CC(C)(C)c1nc2c3cc[nH]c(=O)c3c3cc(F)ccc3c2[nH]1 [P6, Pyridone 6]
Fibroblasts contractile & pro-invasive phenotype (fibroblasts [3]; [6]): −
Fibroblasts contractile & pro-invasive phenotype (fibroblasts [3]; [7]): −
Fibroblasts contractile & pro-invasive phenotype (fibroblasts [3]; [8]): −
Fibroblasts contractile & pro-invasive phenotype (fibroblasts [3]; [9]): −
Fibroblasts contractile & pro-invasive phenotype (fibroblasts [3]; [10]): −
Fibroblasts contractile & pro-invasive phenotype (fibroblasts [3]; [11]): −
Fibroblasts contractile & pro-invasive phenotype (fibroblasts [3]; [12]): −
Fibroblasts contractile & pro-invasive phenotype (fibroblasts [3]; [13]): −
Fibroblasts contractile & pro-invasive phenotype (fibroblasts [3]; [14]): −
Fibroblasts contractile & pro-invasive phenotype (fibroblasts [3]; [15]): −
Fibroblasts contractile & pro-invasive phenotype (fibroblasts [3]; [16]): −
Fibroblasts contractile & pro-invasive phenotype (fibroblasts [3]; [17]): −
Fibroblasts contractile & pro-invasive phenotype (fibroblasts [3]; [18]): −
Fibroblasts contractile & pro-invasive phenotype (fibroblasts [3]; [19]): −
Fibroblasts contractile & pro-invasive phenotype (fibroblasts [3]; [20]): −
Fibroblasts contractile & pro-invasive phenotype (fibroblasts [3]; [21]): −
Fibroblasts contractile & pro-invasive phenotype (fibroblasts [3]; [22]): −
Fibroblasts contractile & pro-invasive phenotype (fibroblasts [3]; [23]): −
Fibroblasts contractile & pro-invasive phenotype (fibroblasts [3]; [24]): −
Fibroblasts contractile & pro-invasive phenotype (fibroblasts [3]; [25]): −
Fibroblasts contractile & pro-invasive phenotype (fibroblasts [3]; [26]): −
Fibroblasts contractile & pro-invasive phenotype (fibroblasts [3]; [27]): −
Fibroblasts contractile & pro-invasive phenotype (fibroblasts [3]; hPK CM, antibodies 10 μg·ml−1): −
Fibroblasts contractile & pro-invasive phenotype (fibroblasts [4]; 4T1 CM (murine breast carcinoma)): −
Fibroblasts contractile & pro-invasive phenotype (fibroblasts [4]; 4T07 CM (murine breast carcinoma)): −
Fibroblasts contractile & pro-invasive phenotype (fibroblasts [4]; 67NR CM (murine breast carcinoma)): −
Fibroblasts contractile & pro-invasive phenotype (fibroblasts [4]; 410.4 CM (murine breast carcinoma)): −
pro-invasive potential (matrix remodelling) of hCAF (hDF and hCAF): required JAK signalling to sustain their pro-invasive potential
STAT3 phosphorylation induced by TGFβ1 (STAT3): blocked
fibronectin expression pattern (hDF [5]): slightly reduced
